Series [1] has as its system P. falciparum stage V gametocytes. The series can be described thus: Gametocytocidal ATP bioluminescence assay (single point 5 μM and 1 μM, dose-response). It is filed as cell-based, Plasmodium falciparum. The settings on record: for Ratio IC50 HepG2/IC50 P. falciparum: IC50 HepG2 divided by IC50 P. falciparum gametocytes.
Procedure: Purified stage IV-V gametocytes were obtained as previously described [10]. Single point ATP bioluminescence assay and dose–response of positive hits was determined in accordance with the previously published protocol [10].
Series [2] has as its system luciferase reaction (BacTiter-Glo). The series can be described thus: Interference assay (inhibition of the BacTiter-Glo luciferase reaction). In kind it is biochemical. Also noted: concentration or dose not given beside the values. To be noted: ATP interference assay. As for the experimental part:
To discard possible false-positive results, we performed an interference assay in parallel. […] […]. The ATP solution was made by dissolving ATP powder (ATP standard from the ATPlite 1 step assay kit, reference 6016731, Perkin Elmer) in culture medium. The positive control used was the Luciferase Inhibitor I Calbiochem (Merck, 119113) at 100 μM.

Series [3] is described as follows: Cytotoxicity in HepG2 cells (intracellular ATP, ATPlite, 48 h). In kind it is cell-based, human. The settings on record: human, HepG2 cells. (Cellular ATP, detected with luciferase, serves as a proxy for viable cell number.)
Another series concerns HepG2 cells. The series is described as above. To be noted: IC50 HepG2 divided by IC50 P. falciparum gametocytes. It is filed as cell-based, human.
In series [4] the test system is P. falciparum asexual stages. The settings on record: TCAMS data, cited from earlier work.
The mark [5] stands for this setting: Plasmodium falciparum, P. falciparum gametocytes, average, read-out: IC50 Pf Gametocytes average, IC50 (µM) average.
The mark [6] stands for this setting: Plasmodium falciparum, sexual stages (gametocytes), dose-response, read-out: IC50 sexual.
Where [7] appears, read: HepG2, 48 h exposure, intracellular ATP, read-out: IC50 (μM) Cytotoxicity HepG2.
The mark [8] stands for this setting: IC50 per ratio column head, unit inferred, read-out: Cytotoxicity in HepG2.
The mark [9] stands for this setting: P. falciparum asexual stages, read-out: IC50 (µM) Pf asexual stages.
Where [10] appears, read: asexual stages, read-out: IC50 asexual.
Setting [11] is: sexual stages (gametocytes), dose-response, read-out: IC50 sexual.

Where two headings read alike, the source gives them in different places.

Consider `Cc1cc(Nc2ccncc2)n2nc(C)c(-c3ccc(Cl)cc3)c2n1` [TCMDC-124478], for which the “Ratio IC50 HepG2/IC50 P. falciparum” value (in series [1]; in the series on HepG2 cells) was over 55 each time. The IC50 is 0.91 µM in series [1] (setting [5]), 0.913 µM in series [1] (setting [6]), 0.16 µM in series [4] (setting [9]) and 0.157 µM in series [4] (setting [10]). The “% Control luminiscence” value in series [2] is listed as 100%. Further, the figures for the IC50 at 48 h in series [3] (setting [7]) and in series [3] (setting [8]) were over 25 µM and over 50 µM, respectively.
With `Cc1ccc(C)c(CC(=O)N2CCC(n3c(C)nc4ccc(F)cc43)CC2)c1` [TCMDC-124790], the “Ratio IC50 HepG2/IC50 P. falciparum” value (in series [1]; in the series on HepG2 cells) was over 27 throughout. Besides, the IC50 in series [1] (setting [5]) is 0.92 µM; in series [1] (setting [6]) it was 0.923 µM; in series [4] (setting [9]), 0.19 µM; in series [4] (setting [10]) it was 0.193 µM. For the same compound, in series [2], the “% Control luminiscence” value amounted to 100%. For the same compound, in series [3] (setting [8]), the IC50 at 48 h is over 25 µM.
For the compound `COc1cccc(CC(=O)N2CCC(n3c(C)nc4ccc(C)cc43)CC2)c1` [TCMDC-124791], the “Ratio IC50 HepG2/IC50 P. falciparum” value (in series [1]; in the series with HepG2 cells) was over 53 in each case. The IC50 in series [1] (setting [5]) was 0.47 µM; in series [4] (setting [9]), 0.11 µM; in series [4] (setting [10]), 0.114 µM. In addition, the “% Control luminiscence” value in series [2] was 100%. In series [3] (setting [8]), the IC50 at 48 h was over 25 µM.
On to `O=C(c1ccc([N+](=O)[O-])o1)N1CCC(Cc2ccc(C(F)(F)F)cc2)CC1` [TCMDC-124805], for which the “Ratio IC50 HepG2/IC50 P. falciparum” value (in series [1]; with HepG2 cells) was 55 each time. For the same compound, the IC50 in series [1] (setting [5]) is 0.26 µM; in series [1] (setting [6]), 0.257 µM; in series [4] (setting [9]), 0.17 µM; in series [4] (setting [10]), 0.166 µM. Moreover, the “% Control luminiscence” value in series [2] was found to be 100%. Besides, the IC50 at 48 h in series [3] (setting [7]) was determined as 14 µM; in series [3] (setting [8]) it was 14.1 µM.
Take `CCc1nn2c(Nc3ccncc3)cc(C)nc2c1-c1ccccc1` [TCMDC-124917]: the “Ratio IC50 HepG2/IC50 P. falciparum” value (in series [1]; with HepG2 cells) was over 13 in each case. The IC50 was 1.9 µM in series [1] (setting [5]), 1.9 µM in series [1] (setting [6]), 0.2 µM in series [4] (setting [9]) and 0.203 µM in series [4] (setting [10]). In addition, the “% Control luminiscence” value in series [2] is reported as 93%. In addition, the IC50 at 48 h in series [3] (setting [8]) was over 25 µM.
In the case of `Cc1cc(Nc2ccncc2)n2nc(C)c(-c3ccccc3Cl)c2n1` [TCMDC-124918], the “Ratio IC50 HepG2/IC50 P. falciparum” value (in series [1]; in the series on HepG2 cells) was over 13 in each case. Besides, the IC50 was 1.94 µM in series [1] (setting [5]), 1.94 µM in series [1] (setting [6]), 0.65 µM in series [4] (setting [9]) and 0.654 µM in series [4] (setting [10]). In addition, the “% Control luminiscence” value in series [2] was 100%. In series [3] (setting [8]), the IC50 at 48 h is over 25 µM.
Turning to `COc1ccc(NC(=O)C2c3ccccc3C(=O)N(CC(C)C)C2c2cccs2)cc1OC` (centres unmarked) [TCMDC-125289], the “Ratio IC50 HepG2/IC50 P. falciparum” value (in series [1]; in the series on HepG2 cells) was over 58 throughout. Further, the IC50 in series [1] (setting [5]) is 0.43 µM; in series [1] (setting [6]) it was 0.427 µM; in series [4] (setting [9]), 0.2 µM; in series [4] (setting [10]) it was 0.203 µM. The “% Control luminiscence” value in series [2] stood at 100%. Besides, the IC50 at 48 h in series [3] (setting [8]) was over 25 µM.
As for `CCN(CC)CCCOC(=O)c1ccc2c(c1)-c1ccc(C(=O)OCCCN(CC)CC)c3cccc-2c13` [TCMDC-125491], the “Ratio IC50 HepG2/IC50 P. falciparum” value (in series [1]; with HepG2 cells) was 140 throughout. The IC50 is 0.14 µM in series [1] (setting [5]), 0.143 µM in series [1] (setting [11]) and 0.933 µM in series [4] (setting [10]). Further, the “% Control luminiscence” value in series [2] is given as 96%. In addition, the IC50 at 48 h in series [3] (setting [8]) came to 20 µM.
For `Fc1ccc(NC(=S)NN=Cc2ccccn2)cc1` [TCMDC-125521], the “Ratio IC50 HepG2/IC50 P. falciparum” value (in series [1]; with HepG2 cells) was 195 in each case. Also, the IC50 in series [1] (setting [5]) was 0.12 µM; in series [4] (setting [9]) it was 0.77 µM; in series [4] (setting [10]), 0.775 µM. Besides, in series [2], the “% Control luminiscence” value turned out to be 100%. Also, the IC50 at 48 h in series [3] (setting [7]) is 23 µM; in series [3] (setting [8]), 23.4 µM.
For the compound `c1ccc2sc(Sc3ncnc4sccc34)nc2c1` [TCMDC-125539], the “Ratio IC50 HepG2/IC50 P. falciparum” value (in series [1]; in the series on HepG2 cells) was over 50 each time. Moreover, the IC50 in series [1] (setting [5]) is 0.5 µM; in series [1] (setting [6]), 0.497 µM; in series [4] (setting [9]) it was 0.73 µM; in series [4] (setting [10]), 0.734 µM. The “% Control luminiscence” value in series [2] worked out at 100%. Moreover, the IC50 at 48 h in series [3] (setting [8]) was over 25 µM.
Turning to `COc1cccc(C(=O)NC(C=Cc2ccccc2)c2cc(Cl)c3cccnc3c2O)c1` (centres unmarked) [TCMDC-125550], the “Ratio IC50 HepG2/IC50 P. falciparum” value (in series [1]; with HepG2 cells) was over 43 each time. In addition, the IC50 in series [1] (setting [5]) is 0.59 µM; in series [1] (setting [11]), 0.585 µM; in series [4] (setting [10]), 0.859 µM. Moreover, the “% Control luminiscence” value in series [2] is given as 100%. In series [3] (setting [8]), the IC50 at 48 h is over 25 µM.
For `O=[N+]([O-])c1ccc(C=NNc2nc(Nc3ccccc3)nc(Nc3ccccc3)n2)o1` [TCMDC-125802], the “Ratio IC50 HepG2/IC50 P. falciparum” value (in series [1]; in the series on HepG2 cells) was 11 throughout. For the same compound, the IC50 is 1.31 µM in series [1] (setting [5]), 1.31 µM in series [1] (setting [11]) and 0.837 µM in series [4] (setting [10]). For the same compound, the “% Control luminiscence” value in series [2] is given as 100%. In addition, the IC50 at 48 h in series [3] (setting [8]) came out at 14.8 µM.
With `CCN(CC)C(=NC(=N)Nc1ccc(Cl)cc1)NCCCCCCCCNC(=NC(=N)Nc1ccc(Cl)cc1)N(CC)CC` [TCMDC-131812], the “Ratio IC50 HepG2/IC50 P. falciparum” value (in series [1]; in the series with HepG2 cells) was over 24 each time. Further, the IC50 in series [1] (setting [5]) was 1.03 µM; in series [4] (setting [10]), 0.403 µM. In series [2], the “% Control luminiscence” value worked out at 100%. For the same compound, the IC50 at 48 h in series [3] (setting [8]) is over 25 µM.
As for `COc1ccc(CNC2Cc3ccccc3C2)cc1-c1ccc(OC)c(S(=O)(=O)NCCN2CCCC2)c1` [TCMDC-132251], the “Ratio IC50 HepG2/IC50 P. falciparum” value (in series [1]; with HepG2 cells) was 15 in each case. In addition, the figures for the IC50 in series [1] (setting [5]) and in series [4] (setting [10]) were 1.14 µM and 0.773 µM, respectively. For the same compound, in series [2], the “% Control luminiscence” value is listed as 100%. For the same compound, the IC50 at 48 h in series [3] (setting [8]) amounted to 16.6 µM.
Consider `COc1ccc(CNCc2ccc(F)cc2)cc1-c1ccc(OC)c(S(=O)(=O)NCCN2CCCC2)c1` [TCMDC-132295], for which the “Ratio IC50 HepG2/IC50 P. falciparum” value (in series [1]; in the series with HepG2 cells) was 16 in each case. Besides, the results for the IC50 in series [1] (setting [5]), in series [1] (setting [11]) and in series [4] (setting [10]) were 0.72 µM, 0.717 µM and 0.786 µM, respectively. In series [2], the “% Control luminiscence” value was 99%. Besides, the IC50 at 48 h in series [3] (setting [8]) came out at 11.4 µM.
On to `NCc1ccc(CNCc2cccc(-c3ccc(-c4nc5ccccc5[nH]4)cc3)c2)cc1` [TCMDC-132815], for which the “Ratio IC50 HepG2/IC50 P. falciparum” value (in series [1]; with HepG2 cells) was 45 each time. Further, the figures for the IC50 in series [1] (setting [5]), in series [1] (setting [11]) and in series [4] (setting [10]) were 0.48 µM, 0.483 µM and 0.717 µM, respectively. In series [2], the “% Control luminiscence” value stood at 100%. The IC50 at 48 h in series [3] (setting [8]) is 21.8 µM.
Take `c1cc(CNCCN2CCNCC2)cc(-c2cccc(-c3nc4ccccc4[nH]3)c2)c1` [TCMDC-132859]: the “Ratio IC50 HepG2/IC50 P. falciparum” value (in series [1]; in the series with HepG2 cells) was 27 in each case. Also, the IC50 was 0.71 µM in series [1] (setting [5]), 0.96 µM in series [4] (setting [9]) and 0.959 µM in series [4] (setting [10]). In addition, the “% Control luminiscence” value in series [2] is listed as 100%. Also, the IC50 at 48 h is 19 µM in series [3] (setting [7]) and 19.3 µM in series [3] (setting [8]).

Values taken from article PMC4552634, “A New Set of Chemical Starting Points with Plasmodium falciparum Transmission-Blocking Potential for Antimalarial Drug Discovery” (PLoS ONE, 2015).
